Measurements as given in ChEMBL document CHEMBL5463725, “Data for DCP probe BAY-277” (2023).
Activity calls are given as the source filed them. The rule behind the calls is not given here.

How the values were obtained:
[1] = target: Methionine aminopeptidase 2 (Homo sapiens, UniProt P50579); test: Degradation in HUVEC cells (WB) (Western Blot (WB)); type: functional, cell-based
[2] = target: Tyrosine-protein kinase Blk (Homo sapiens) (UniProt P51451); test: Inhibition of Blk(h) at 10.0 µM in the Eurofins Kinase panel; settings: Compound concentration 10.0 uM
[3] = target: Carbonic anhydrase 2 (Homo sapiens) (UniProt P00918); test: Inhibition of Carbonic Anhydrase II at 10.0 µM in the Eurofins Panlabs Safety Screen; settings: Compound concentration 10.0 uM
[4] = target: Prostaglandin G/H synthase 1 (Homo sapiens) (UniProt P23219); test: Inhibition of Cyclooxygenase COX-1 at 10.0 µM in the Eurofins Panlabs Safety Screen; settings: Compound concentration 10.0 uM
[5] = target: Prostaglandin G/H synthase 2 (Homo sapiens) (UniProt P35354); test: Inhibition of Cyclooxygenase COX-2 at 10.0 µM in the Eurofins Panlabs Safety Screen; settings: Compound concentration 10.0 uM
[6] = target: Thromboxane-A synthase (Homo sapiens) (UniProt P24557); test: Inhibition of Thromboxane Synthase at 10.0 µM in the Eurofins Panlabs Safety Screen; settings: Compound concentration 10.0 uM
[7] = target: Adenosine receptor A2a (Homo sapiens) (UniProt P29274); test: Inhibition of Adenosine A2A at 10.0 µM in the Eurofins Panlabs Safety Screen; settings: Compound concentration 10.0 uM
[8] = target: T1, Alpha-2A adrenergic receptor (Homo sapiens) (UniProt P08913); test: Inhibition of Adrenergic alpha2A at 10.0 µM in the Eurofins Panlabs Safety Screen; settings: Compound concentration 10.0 uM
T1 sequence (whole entry): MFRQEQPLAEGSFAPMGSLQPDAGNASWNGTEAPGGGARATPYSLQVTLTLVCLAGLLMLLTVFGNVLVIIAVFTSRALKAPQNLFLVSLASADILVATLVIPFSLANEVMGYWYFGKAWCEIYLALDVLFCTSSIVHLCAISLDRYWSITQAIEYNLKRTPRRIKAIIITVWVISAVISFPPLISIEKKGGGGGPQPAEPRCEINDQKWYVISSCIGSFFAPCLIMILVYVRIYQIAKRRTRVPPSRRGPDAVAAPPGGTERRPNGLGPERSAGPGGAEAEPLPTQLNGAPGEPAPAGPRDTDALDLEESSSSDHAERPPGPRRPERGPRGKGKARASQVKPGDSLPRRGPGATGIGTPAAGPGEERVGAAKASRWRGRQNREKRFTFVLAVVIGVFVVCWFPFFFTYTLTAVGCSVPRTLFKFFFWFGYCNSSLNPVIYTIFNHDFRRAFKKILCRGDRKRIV

[9] = target: D(3) dopamine receptor (Homo sapiens, UniProt P35462); test: Inhibition of Dopamine D3 at 10.0 µM in the Eurofins Panlabs Safety Screen; settings: Compound concentration 10.0 uM
[10] = target: Estrogen receptor (Homo sapiens) (UniProt P03372); test: Inhibition of Estrogen Eralpha at 10.0 µM in the Eurofins Panlabs Safety Screen; settings: Compound concentration 10.0 uM
[11] = target: GABA-A receptor; anion channel (Rattus norvegicus) (UniProt O09028+P15431+P18506+P18508+P19969+P20236+P23574+P23576+P28471+P28473+P30191+P62813+P63079+P63138+Q91ZM7+Q9ES14); test: Inhibition of GABAA, Chloride Channel, TBOB at 10.0 µM in the Eurofins Panlabs Safety Screen; type: protein-complex assay; settings: Compound concentration 10.0 uM
[12] = target: Motilin receptor (Homo sapiens) (UniProt O43193); test: Inhibition of Motilin at 10.0 µM in the Eurofins Panlabs Safety Screen; settings: Compound concentration 10.0 uM
[13] = target: T2, Muscarinic acetylcholine receptor M2 (Homo sapiens) (UniProt P08172); test: Inhibition of Muscarinic M2 at 10.0 µM in the Eurofins Panlabs Safety Screen; settings: Compound concentration 10.0 uM
T2 sequence (whole entry): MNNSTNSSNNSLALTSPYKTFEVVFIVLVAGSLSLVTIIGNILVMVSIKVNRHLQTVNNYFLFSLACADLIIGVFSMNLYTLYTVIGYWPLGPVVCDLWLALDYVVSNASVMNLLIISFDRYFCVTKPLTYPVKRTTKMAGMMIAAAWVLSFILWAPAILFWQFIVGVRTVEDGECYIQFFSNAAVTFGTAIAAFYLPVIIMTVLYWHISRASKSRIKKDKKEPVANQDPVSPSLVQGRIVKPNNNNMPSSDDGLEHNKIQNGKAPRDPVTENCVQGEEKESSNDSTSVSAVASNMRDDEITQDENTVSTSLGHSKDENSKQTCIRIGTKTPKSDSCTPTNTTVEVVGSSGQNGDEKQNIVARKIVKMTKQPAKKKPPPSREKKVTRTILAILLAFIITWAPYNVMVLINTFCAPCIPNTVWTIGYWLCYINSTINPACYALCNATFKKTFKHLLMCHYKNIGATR

[14] = target: Vasopressin V1a receptor (Homo sapiens) (UniProt P37288); test: Inhibition of Vasopressin V1A at 10.0 µM in the Eurofins Panlabs Safety Screen; settings: Compound concentration 10.0 uM
[15] = target: 5-hydroxytryptamine receptor 3A (Homo sapiens) (UniProt P46098); settings: Compound concentration 10.0 uM
[16] = target: 5-hydroxytryptamine receptor 5A (Homo sapiens) (UniProt P47898); settings: Compound concentration 10.0 uM
[17] = target: 5-hydroxytryptamine receptor 7 (Homo sapiens) (UniProt P34969); settings: Compound concentration 10.0 uM
[18] = target: T3, Alpha-2C adrenergic receptor (Homo sapiens) (UniProt P18825); settings: Compound concentration 10.0 uM
T3 sequence (whole entry): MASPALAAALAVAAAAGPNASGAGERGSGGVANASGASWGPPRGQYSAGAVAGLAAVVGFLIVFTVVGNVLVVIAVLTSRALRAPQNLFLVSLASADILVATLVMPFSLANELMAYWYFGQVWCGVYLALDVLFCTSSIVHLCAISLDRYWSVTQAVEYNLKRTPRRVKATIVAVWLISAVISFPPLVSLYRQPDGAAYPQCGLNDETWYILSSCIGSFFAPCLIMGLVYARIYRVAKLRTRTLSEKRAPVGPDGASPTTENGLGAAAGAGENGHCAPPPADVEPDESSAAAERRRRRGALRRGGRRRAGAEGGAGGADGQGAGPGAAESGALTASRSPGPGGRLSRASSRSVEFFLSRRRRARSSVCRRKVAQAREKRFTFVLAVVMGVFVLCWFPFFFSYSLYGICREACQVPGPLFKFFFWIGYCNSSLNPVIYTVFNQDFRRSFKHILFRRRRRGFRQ

[19] = target: T2, Muscarinic acetylcholine receptor M2 (Homo sapiens); settings: Compound concentration 10.0 uM
[20] = target: Beta-3 adrenergic receptor (Homo sapiens) (UniProt P13945); settings: Compound concentration 10.0 uM
Sequence of Beta-3 adrenergic receptor (Homo sapiens) (P13945 whole entry, looked up): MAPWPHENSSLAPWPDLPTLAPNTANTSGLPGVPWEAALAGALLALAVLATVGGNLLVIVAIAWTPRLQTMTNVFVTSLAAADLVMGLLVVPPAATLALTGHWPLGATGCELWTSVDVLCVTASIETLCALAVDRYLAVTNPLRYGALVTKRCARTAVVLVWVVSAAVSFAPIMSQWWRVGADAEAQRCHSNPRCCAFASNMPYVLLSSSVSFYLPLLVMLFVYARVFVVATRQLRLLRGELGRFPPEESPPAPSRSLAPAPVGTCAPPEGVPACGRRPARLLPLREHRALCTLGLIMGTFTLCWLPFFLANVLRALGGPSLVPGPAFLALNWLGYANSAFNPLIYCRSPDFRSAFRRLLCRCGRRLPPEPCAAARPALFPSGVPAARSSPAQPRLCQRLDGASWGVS

Sequence of 5-hydroxytryptamine receptor 5A (Homo sapiens) (P47898 whole entry): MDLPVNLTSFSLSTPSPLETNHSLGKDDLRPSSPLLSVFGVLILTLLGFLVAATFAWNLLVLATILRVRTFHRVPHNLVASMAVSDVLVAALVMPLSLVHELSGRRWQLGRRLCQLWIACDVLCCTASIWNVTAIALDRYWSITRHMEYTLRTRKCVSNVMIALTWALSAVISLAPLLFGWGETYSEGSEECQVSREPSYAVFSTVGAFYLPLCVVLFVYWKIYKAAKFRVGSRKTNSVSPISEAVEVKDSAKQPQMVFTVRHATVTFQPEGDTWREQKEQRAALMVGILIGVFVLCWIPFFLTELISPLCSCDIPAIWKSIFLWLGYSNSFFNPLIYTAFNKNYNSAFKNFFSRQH
Sequence of 5-hydroxytryptamine receptor 3A (Homo sapiens) (P46098 whole entry): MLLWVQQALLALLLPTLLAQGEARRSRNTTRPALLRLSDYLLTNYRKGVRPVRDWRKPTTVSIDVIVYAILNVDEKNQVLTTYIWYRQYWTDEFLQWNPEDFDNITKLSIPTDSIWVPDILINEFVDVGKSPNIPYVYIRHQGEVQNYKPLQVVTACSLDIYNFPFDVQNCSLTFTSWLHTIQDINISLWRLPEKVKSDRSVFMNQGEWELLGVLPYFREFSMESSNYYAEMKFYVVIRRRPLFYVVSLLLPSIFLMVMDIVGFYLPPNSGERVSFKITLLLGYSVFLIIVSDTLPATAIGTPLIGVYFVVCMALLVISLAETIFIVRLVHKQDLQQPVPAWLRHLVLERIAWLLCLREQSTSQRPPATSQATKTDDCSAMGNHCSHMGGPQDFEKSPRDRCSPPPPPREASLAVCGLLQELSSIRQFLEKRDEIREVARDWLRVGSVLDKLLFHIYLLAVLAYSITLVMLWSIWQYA
Sequence of 5-hydroxytryptamine receptor 7 (Homo sapiens) (P34969 whole entry): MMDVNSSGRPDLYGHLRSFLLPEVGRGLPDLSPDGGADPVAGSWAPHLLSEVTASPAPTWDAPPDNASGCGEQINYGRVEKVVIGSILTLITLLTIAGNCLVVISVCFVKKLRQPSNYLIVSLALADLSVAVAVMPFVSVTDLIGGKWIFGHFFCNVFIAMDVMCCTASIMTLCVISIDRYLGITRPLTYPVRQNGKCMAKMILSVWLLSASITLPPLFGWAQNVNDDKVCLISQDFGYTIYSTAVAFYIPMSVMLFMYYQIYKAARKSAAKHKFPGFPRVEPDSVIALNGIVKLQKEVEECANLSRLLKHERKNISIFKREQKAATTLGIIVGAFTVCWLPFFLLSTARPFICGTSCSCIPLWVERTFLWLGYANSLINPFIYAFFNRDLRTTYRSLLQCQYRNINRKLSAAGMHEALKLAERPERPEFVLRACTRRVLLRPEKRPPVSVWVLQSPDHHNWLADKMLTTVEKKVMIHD
Sequence of D(3) dopamine receptor (P35462 whole entry): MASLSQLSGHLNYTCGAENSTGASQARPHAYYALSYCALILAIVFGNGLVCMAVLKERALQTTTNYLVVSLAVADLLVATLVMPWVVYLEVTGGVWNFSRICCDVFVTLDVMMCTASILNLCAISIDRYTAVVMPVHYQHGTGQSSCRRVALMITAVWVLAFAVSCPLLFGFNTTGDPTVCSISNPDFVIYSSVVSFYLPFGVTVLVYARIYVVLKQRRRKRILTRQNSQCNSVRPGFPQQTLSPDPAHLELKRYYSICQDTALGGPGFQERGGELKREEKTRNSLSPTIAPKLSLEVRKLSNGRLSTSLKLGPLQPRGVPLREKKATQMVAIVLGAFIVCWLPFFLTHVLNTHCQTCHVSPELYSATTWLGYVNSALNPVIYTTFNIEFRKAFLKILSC
Sequence of Adenosine receptor A2a (Homo sapiens) (P29274 whole entry): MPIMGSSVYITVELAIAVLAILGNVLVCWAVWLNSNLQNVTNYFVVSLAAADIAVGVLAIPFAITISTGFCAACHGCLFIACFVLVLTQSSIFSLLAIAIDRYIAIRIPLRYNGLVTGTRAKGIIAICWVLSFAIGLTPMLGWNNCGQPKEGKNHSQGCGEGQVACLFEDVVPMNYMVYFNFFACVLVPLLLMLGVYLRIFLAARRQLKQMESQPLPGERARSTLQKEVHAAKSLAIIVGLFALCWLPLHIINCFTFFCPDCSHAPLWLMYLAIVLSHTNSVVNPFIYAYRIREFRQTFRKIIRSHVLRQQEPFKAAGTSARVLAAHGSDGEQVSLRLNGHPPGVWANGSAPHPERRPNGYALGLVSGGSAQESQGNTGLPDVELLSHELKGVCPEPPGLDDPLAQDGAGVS
Sequence of Vasopressin V1a receptor (Homo sapiens) (P37288 whole entry, looked up): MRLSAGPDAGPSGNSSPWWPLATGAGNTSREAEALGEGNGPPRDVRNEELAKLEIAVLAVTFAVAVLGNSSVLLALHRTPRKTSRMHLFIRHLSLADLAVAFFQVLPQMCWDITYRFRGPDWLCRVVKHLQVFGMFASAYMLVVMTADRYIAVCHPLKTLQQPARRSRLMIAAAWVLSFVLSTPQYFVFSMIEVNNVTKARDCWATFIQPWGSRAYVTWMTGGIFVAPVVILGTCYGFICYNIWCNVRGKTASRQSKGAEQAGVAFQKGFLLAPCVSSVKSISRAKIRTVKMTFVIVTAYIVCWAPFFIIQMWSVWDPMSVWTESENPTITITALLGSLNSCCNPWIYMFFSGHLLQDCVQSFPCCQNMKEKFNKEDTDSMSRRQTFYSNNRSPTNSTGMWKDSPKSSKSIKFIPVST
Sequence of Tyrosine-protein kinase Blk (Homo sapiens) (P51451 2-505 limits assumed): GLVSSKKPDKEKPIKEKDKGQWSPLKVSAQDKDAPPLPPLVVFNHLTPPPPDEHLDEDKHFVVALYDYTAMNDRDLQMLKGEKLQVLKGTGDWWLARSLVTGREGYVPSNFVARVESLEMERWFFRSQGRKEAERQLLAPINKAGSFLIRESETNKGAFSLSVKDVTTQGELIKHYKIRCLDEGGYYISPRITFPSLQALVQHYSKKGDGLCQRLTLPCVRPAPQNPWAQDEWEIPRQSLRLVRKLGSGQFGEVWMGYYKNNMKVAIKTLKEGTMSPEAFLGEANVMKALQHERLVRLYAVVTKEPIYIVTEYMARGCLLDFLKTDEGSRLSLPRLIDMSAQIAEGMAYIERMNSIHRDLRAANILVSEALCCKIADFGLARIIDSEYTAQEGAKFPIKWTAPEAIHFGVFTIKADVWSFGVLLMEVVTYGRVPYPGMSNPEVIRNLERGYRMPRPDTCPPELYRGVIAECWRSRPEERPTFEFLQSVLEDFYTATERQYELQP
Sequence of Prostaglandin G/H synthase 1 (Homo sapiens) (P23219 whole entry): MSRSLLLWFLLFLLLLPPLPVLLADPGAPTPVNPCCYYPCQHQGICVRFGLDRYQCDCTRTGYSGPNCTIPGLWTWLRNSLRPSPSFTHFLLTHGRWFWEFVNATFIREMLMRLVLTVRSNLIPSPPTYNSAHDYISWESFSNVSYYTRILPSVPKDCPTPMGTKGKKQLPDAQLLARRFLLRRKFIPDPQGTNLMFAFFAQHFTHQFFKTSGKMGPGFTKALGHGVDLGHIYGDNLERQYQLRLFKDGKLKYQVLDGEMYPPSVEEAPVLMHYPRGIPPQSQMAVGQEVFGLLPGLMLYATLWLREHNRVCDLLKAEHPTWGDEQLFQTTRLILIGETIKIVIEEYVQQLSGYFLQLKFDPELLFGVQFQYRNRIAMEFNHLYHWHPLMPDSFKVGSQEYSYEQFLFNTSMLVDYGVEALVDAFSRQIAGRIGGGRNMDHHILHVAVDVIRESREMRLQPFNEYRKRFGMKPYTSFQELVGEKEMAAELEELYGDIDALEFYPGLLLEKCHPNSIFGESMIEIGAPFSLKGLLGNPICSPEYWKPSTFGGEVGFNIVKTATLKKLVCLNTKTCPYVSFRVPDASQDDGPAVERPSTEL
Sequence of Thromboxane-A synthase (Homo sapiens) (P24557 whole entry): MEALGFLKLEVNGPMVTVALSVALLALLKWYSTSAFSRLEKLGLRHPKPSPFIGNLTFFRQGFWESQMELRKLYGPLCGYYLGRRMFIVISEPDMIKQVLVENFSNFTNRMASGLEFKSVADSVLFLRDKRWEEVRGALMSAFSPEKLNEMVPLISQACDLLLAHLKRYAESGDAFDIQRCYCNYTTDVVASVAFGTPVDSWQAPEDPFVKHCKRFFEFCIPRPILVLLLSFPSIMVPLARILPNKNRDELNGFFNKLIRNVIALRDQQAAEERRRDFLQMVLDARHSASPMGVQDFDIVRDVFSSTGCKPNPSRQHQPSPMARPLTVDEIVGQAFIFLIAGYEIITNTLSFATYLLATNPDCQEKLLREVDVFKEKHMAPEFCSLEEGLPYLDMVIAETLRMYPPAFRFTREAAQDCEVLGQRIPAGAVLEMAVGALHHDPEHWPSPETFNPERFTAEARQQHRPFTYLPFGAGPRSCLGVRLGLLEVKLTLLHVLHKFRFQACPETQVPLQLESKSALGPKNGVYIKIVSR

Structure (SMILES) | DC50 [1] | inhibition [2] | inhibition [3] | inhibition [4] | inhibition [5] | inhibition [6] | inhibition [7] | inhibition [8] | inhibition [9] | inhibition [10] | inhibition [11] | inhibition [12] | inhibition [13] | inhibition [14] | inhibition [15] | inhibition [16] | inhibition [17] | inhibition [18] | inhibition [19] | inhibition [20]
O=C1NCCCC1N1Cc2cc(C3CCN(C(=O)CCCCCN4CCC(c5ccc(Oc6nn7cnnc7c7c6CCCC7)cc5)CC4)CC3)ccc2C1=O (stereo not given) | > 100 nM (not active) | 26.1% | -8% | 21% | -7% | 23% | 6% | 32% | 76% | 22% | -5% | 10% | 47% | -3% | 23.8% | 14% | 32.5% | 27.5% | 57.2% | 7.19%
O=C1CCC(N2Cc3cc(C4CCN(C(=O)CCCCCN5CCC(c6ccc(Oc7nn8cnnc8c8c7CCCC8)cc6)CC5)CC4)ccc3C2=O)C(=O)N1 (stereo not given) | 0.2 nM (active) | 13.9% | -8% | 16% | -6% | 10% | 6% | 28% | 90% | 17% | -6% | 6% | 53% | -8% | 22.9% | 10.1% | 36.8% | 47.9% | 64.3% | 27.8%
